Results reported in ChEMBL document CHEMBL5247618, “Discovery and optimization of 4-anilinoquinazoline derivatives spanning ATP binding site and allosteric site as effective EGFR-C797S inhibitors” (Eur J Med Chem, 2022).

Columns and labels:
[1] = in vivo; settings: Sprague-Dawley, rat, po, 10 mg/kg
[2] = in vivo; settings: Sprague-Dawley, rat, iv, 1 mg/kg
[3] = in vivo; settings: Sprague-Dawley, rat, po, 10 mg/kg; remark: listed apart in the source
[4] = in vivo; settings: Sprague-Dawley, rat, iv, 1 mg/kg; remark: listed apart in the source

COc1cc2c(Nc3ccc(Oc4ccccc4)cc3)ncnc2cc1OCC1CCN(C)CC1
bioavailability [1]: 9.33% | Cmax [2]: 69.6 ng/mL | Cmax [3]: 7.43 ng/mL | half-life [4]: 1.97 h
